What was measured:
CFTR ΔF508 mutant = molecular target: T1, CFTR ΔF508 mutant (Homo sapiens, UniProt P13569, DEL508-508); assay: YFP-halide influx assay for the CFTR-ΔF508 mutation (CFBE41o- cells); format: cell-based; details: forskolin 10.67 μM; for EC50: from (1−F/F0) vs concentration plot
T1 construct: expressed in transfected cells; host or cells: CFBE41o- cells, adenoviral transduction
Excerpt: The YFP halide influx assay measured the functionality of the cystic fibrosis Transmembrane Conductance regulator (CFTR) channels in the cystic fibrosis bronchial epithelium cell line CFBE41o-. The assay was used to evaluate the capacity of compounds to increase the open probability of existing CFTR channels in the membrane. It makes use of the observation that the yellow fluorescent protein (YFP) variant YFP H148Q, I152L, F47L has its fluorescence substantially quenched by halide ions like Cl^− and I^− (Galietta, L. J. V., Haggie, P. M., Verkman, A. S., 2001. Green fluorescent protein-based halide indicators with improved chloride and iodide affinities. FEBS Lett. 499, 220-224. doi:10.1016/S0014-5793(01)02561-3; Nagai, T., Ibata, K., Park, E. S., Kubota, M., Mikoshiba, K., Miyawaki, A., 2002. A variant of yellow fluorescent protein with fast and efficient maturation for cell-biological applications. Nat. Biotechnol. 20, 87-90. doi: 10.1038/nbt0102-87).
For this purpose, CFBE41o-cells were seeded in 384 well plates (3000 CFBE cells/well). One day after seeding, the CFBE cells were transduced with adenoviral vectors that direct the expression of the CFTR ΔF508 mutant and of the YFP reporter. Cells were incubated at 27° C., 5% CO2 for 24 hours so as to allow for the proper folding and migration to the membrane of the CFTR channel or treated with a CFTR modulator during 24 hours at 37° C.
(§1) The I-induced quenching of fluorescence was recorded on an immediately after injection of iodide for 2 minutes on an FDSS/μCell (Hamamatsu). The capacity of a compound to increase the channel opening was directly correlated with the decrease in fluorescence, and was expressed as (1−(fluorescence after 36 seconds (F)/fluorescence before injection (F0))) and an EC50 was derived from a (1−F/F0) vs compound concentration plot.

CFTR G551D mutant = molecular target: T2, CFTR G551D mutant (Homo sapiens, UniProt P13569, G551D); assay: YFP-halide influx assay for the CFTR-G551D mutation (HEK293 cells); format: cell-based; details: forskolin 10.67 μM
T2 construct: expressed in transfected cells; host or cells: HEK293 cells, reverse transfection with plasmids
T2 sequence (P13569 whole entry G551D): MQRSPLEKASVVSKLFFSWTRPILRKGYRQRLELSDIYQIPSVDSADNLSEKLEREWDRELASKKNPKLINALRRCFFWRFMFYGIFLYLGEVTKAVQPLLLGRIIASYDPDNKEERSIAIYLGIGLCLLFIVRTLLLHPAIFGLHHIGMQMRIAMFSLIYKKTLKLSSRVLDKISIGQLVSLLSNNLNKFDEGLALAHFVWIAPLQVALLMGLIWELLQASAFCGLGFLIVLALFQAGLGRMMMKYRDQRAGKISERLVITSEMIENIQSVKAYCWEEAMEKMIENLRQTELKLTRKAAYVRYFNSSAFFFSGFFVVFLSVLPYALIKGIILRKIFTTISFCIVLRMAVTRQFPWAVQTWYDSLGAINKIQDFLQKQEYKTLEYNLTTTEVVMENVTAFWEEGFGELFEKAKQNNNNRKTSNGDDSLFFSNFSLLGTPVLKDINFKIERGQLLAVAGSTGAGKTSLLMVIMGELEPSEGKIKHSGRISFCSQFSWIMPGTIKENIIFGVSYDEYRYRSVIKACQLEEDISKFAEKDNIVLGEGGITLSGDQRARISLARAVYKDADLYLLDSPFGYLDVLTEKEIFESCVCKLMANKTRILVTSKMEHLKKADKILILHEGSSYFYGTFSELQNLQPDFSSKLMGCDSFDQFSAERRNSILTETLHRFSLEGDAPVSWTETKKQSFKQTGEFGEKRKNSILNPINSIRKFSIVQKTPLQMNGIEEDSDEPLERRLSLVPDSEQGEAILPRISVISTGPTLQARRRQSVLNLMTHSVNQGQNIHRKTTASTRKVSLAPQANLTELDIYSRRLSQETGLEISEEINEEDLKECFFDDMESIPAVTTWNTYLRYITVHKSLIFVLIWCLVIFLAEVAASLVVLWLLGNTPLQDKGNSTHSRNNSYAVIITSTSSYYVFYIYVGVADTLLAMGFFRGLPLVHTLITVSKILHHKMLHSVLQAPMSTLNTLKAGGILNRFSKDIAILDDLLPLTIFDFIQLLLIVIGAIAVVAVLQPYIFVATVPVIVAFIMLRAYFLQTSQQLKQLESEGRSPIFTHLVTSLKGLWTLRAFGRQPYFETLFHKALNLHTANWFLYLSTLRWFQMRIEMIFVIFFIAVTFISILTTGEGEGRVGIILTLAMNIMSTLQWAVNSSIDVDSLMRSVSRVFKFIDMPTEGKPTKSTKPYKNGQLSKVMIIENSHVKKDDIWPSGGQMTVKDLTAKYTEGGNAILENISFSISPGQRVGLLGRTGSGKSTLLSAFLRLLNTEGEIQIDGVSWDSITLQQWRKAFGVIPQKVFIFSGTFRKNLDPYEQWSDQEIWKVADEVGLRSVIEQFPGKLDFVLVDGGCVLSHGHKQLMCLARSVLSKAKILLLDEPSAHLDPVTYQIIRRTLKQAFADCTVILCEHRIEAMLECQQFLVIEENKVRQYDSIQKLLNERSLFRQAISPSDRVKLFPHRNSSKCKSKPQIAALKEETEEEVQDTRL
Excerpt: The YFP halide influx assay measured the functionality of the cystic fibrosis Transmembrane Conductance regulator (CFTR) channels. The assay was used to evaluate the capacity of compounds to increase the channel opening of existing mutant CFTR channels in the membrane. It makes use of the observation that the yellow fluorescent protein (YFP) variant YFP H148Q, I152L, F47L has its fluorescence substantially quenched by halide ions like Cl^− and I^− (Galietta, L. J. V., Haggie, P. M., Verkman, A. S., 2001. Green fluorescent protein-based halide indicators with improved chloride and iodide affinities. FEBS Lett. 499, 220-224. doi:10.1016/S0014-5793(01)02561-3).
For this purpose, HEK293-cells were seeded in 96 well plates. During seeding, the cells were reverse-transfected with plasmid vectors that direct the expression of the CFTR G551D mutant and of the YFP reporter. Cells were incubated at 37° C., 5% CO2 for 24 hours so as to allow for sufficient expression of the CFTR protein.
as §1, with “I^−-induced” for “I-induced”, “recorded” for “recorded on an”, “I^−” for “iodide”, “7 seconds.” for “2 minutes on an FDSS/μCell (Hamamatsu).”, “7” for “36”

T1 sequence (P13569 with tags, fused parts or gaps DEL508-508): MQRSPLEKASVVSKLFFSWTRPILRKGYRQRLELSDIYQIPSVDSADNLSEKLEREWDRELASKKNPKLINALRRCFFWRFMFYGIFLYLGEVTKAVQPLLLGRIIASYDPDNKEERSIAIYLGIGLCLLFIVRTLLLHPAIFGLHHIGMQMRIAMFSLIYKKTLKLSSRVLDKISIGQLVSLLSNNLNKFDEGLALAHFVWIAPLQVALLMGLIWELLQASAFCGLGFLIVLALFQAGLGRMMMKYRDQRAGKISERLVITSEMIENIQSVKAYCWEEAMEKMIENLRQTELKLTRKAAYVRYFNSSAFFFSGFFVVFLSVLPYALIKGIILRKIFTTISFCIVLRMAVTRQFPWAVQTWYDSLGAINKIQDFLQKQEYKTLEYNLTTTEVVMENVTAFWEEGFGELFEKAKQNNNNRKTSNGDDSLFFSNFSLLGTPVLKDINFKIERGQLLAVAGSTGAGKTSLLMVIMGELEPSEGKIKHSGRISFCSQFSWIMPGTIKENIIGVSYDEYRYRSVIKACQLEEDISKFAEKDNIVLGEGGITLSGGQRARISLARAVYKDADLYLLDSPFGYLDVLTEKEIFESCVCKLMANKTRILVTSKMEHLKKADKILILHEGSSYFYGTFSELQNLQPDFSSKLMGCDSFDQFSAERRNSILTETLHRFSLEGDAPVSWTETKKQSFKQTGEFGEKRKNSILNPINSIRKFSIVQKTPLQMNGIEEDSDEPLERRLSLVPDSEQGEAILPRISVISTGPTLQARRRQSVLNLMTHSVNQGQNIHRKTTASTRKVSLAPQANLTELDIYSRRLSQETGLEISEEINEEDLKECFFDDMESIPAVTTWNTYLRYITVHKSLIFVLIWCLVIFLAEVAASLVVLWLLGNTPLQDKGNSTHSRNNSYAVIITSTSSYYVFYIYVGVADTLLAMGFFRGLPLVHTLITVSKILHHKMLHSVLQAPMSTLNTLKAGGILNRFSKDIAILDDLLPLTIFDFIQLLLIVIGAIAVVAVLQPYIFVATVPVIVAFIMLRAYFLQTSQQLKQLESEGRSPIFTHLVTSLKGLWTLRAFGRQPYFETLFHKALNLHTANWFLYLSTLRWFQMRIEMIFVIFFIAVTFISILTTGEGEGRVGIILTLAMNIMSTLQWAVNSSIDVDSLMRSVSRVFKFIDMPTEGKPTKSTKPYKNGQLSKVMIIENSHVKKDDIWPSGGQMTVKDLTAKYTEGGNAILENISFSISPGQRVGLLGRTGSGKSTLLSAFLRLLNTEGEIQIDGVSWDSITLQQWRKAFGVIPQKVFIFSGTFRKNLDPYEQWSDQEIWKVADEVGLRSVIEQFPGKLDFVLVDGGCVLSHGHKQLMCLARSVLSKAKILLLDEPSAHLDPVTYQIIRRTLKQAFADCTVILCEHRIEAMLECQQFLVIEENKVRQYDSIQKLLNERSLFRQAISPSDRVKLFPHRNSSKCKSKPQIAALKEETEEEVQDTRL

SMILES | % Activation (CFTR ΔF508 mutant) [%] | EC50 (CFTR ΔF508 mutant) [nM] | % Activation (CFTR G551D mutant) [%] | EC50 (CFTR G551D mutant) [nM]
CC(C)(O)CNC(=O)c1ncc(S(=O)(=O)c2ccc(F)cc2)cc1N [Compound 10, 3-amino-5-[(4-fluorophenyl)sulfonyl]-N-(2-hydroxy-2-methylpropyl)pyridine-2-carboxamide] | 106.4 | 148 | 52.2 | > 3330
Nc1cc(S(=O)(=O)c2ccc(OC(F)(F)F)cc2)cnc1C(=O)NCC1(CO)CCC1 [Compound 23, 3-amino-N-{[1-(hydroxymethyl)cyclobutyl]methyl}-5-{[4-(trifluoromethoxy)phenyl]sulfonyl}pyridine-2-carboxamide] | 103.9 | 78.2 | 57.4 | 2150
CC(C)(CCO)CNC(=O)c1ncc(S(=O)(=O)c2ccc(OC(F)(F)F)cc2)cc1N [Compound 34, 3-amino-N-(4-hydroxy-2,2-dimethylbutyl)-5-{[4-(trifluoromethoxy)phenyl]sulfonyl}pyridine-2-carboxamide] | 99.0 | 91.1 | 70.2 | 1480
Nc1cc(S(=O)(=O)c2ccc(OC(F)(F)F)cc2)cnc1C(=O)NCC(O)C1CCOCC1 (stereo not drawn) [Compound 35, 3-amino-N-[2-hydroxy-2-(tetrahydro-2H-pyran-4-yl)ethyl]-5-{[4-(trifluoromethoxy)phenyl]sulfonyl}pyridine-2-carboxamide] | 110.4 | 84.7 | 78.7 | 2390
CC(C)(O)CNC(=O)c1ncc(S(=O)(=O)c2cccc(F)c2)cc1N [Compound 39, 3-amino-5-[(3-fluorophenyl)sulfonyl]-N-(2-hydroxy-2-methylpropyl)pyridine-2-carboxamide] | 42.5 | 155 | 5.0 | > 10000
CC(C)C[C@H](CO)NC(=O)c1ncc(S(=O)(=O)c2ccc(OC(F)(F)F)cc2)cc1N [Compound 46, 3-amino-N-[(2R)-1-hydroxy-4-methylpentan-2-yl]-5-{[4-(trifluoromethoxy)phenyl]sulfonyl}pyridine-2-carboxamide] | 41.4 | 1160 | 3.5 | > 10000
COCC(O)CCNC(=O)c1ncc(S(=O)(=O)c2ccc(OC(F)(F)F)cc2)cc1N (stereo not drawn) [Compound 54, 3-amino-N-(3-hydroxy-4-methoxybutyl)-5-{[4-(trifluoromethoxy)phenyl]sulfonyl}pyridine-2-carboxamide] | 89.2 | 72.9 | 62.6 | 1660
Nc1cc(S(=O)(=O)c2ccc(OC(F)(F)F)cc2)cnc1C(=O)N1CC(N2CCOCC2)C1 [Compound 60, (3-amino-5-{[4-(trifluoromethoxy)phenyl]sulfonyl}pyridin-2-yl)[3-(morpholin-4-yl)azetidin-1-yl]methanone] | 105.0 | 67.2 | 71.1 | 3120
N#CC1CN(C(=O)c2ncc(S(=O)(=O)c3ccc(OC(F)(F)F)cc3)cc2N)C1 [Compound 61, 1-[(3-amino-5-{[4-(trifluoromethoxy)phenyl]sulfonyl}pyridin-2-yl)carbonyl]azetidine-3-carbonitrile] | 101.0 | 60.9 | 70.0 | 2730

The next molecules have a lower EC50 (CFTR ΔF508 mutant) than those just listed; values first:

% Activation (CFTR ΔF508 mutant) [%] | EC50 (CFTR ΔF508 mutant) [nM] | % Activation (CFTR G551D mutant) [%] | EC50 (CFTR G551D mutant) [nM] | SMILES
114.5 | 36.1 | 43.8 | 692 | CCC(CO)NC(=O)c1ncc(S(=O)(=O)c2ccc(OC(F)(F)F)cc2)cc1N (stereo not drawn) [Compound 12, 3-amino-N-(1-hydroxybutan-2-yl)-5-{[4-(trifluoromethoxy)phenyl]sulfonyl}pyridine-2-carboxamide]
101.0 | 39.9 | 21.3 | > 10000 | CC(C)C(CO)NC(=O)c1ncc(S(=O)(=O)c2ccc(OC(F)(F)F)cc2)cc1N (stereo not drawn) [Compound 13, 3-amino-N-(1-hydroxy-3-methylbutan-2-yl)-5-{[4-(trifluoromethoxy)phenyl]sulfonyl}pyridine-2-carboxamide]
102.2 | 54.1 | 53.2 | 778 | Nc1cc(S(=O)(=O)c2ccc(OC(F)(F)F)cc2)cnc1C(=O)NCC1(CO)CC1 [Compound 22, 3-amino-N-{[1-(hydroxymethyl)cyclopropyl]methyl}-5-{[4-(trifluoromethoxy)phenyl]sulfonyl}pyridine-2-carboxamide]
101.0 | 10.1 | 55.0 | 1240 | Nc1cc(S(=O)(=O)c2ccc(F)cc2)cnc1C(=O)NCC(O)C(F)(F)F (stereo not drawn) [Compound 27, 3-amino-5-[(4-fluorophenyl)sulfonyl]-N-(3,3,3-trifluoro-2-hydroxypropyl)pyridine-2-carboxamide]
97.2 | 50.4 | 51.9 | 2330 | Nc1cc(S(=O)(=O)c2ccc(OC(F)(F)F)cc2)cnc1C(=O)NCC1(O)CCOC1 (stereo not drawn) [Compound 28, 3-amino-N-[(3-hydroxytetrahydrofuran-3-yl)methyl]-5-{[4-(trifluoromethoxy)phenyl]sulfonyl}pyridine-2-carboxamide]
94.1 | 54.6 | 58.7 | 1500 | Nc1cc(S(=O)(=O)c2ccc(OC(F)(F)F)cc2)cnc1C(=O)NCC1(O)CCOCC1 [Compound 29, 3-amino-N-[(4-hydroxytetrahydro-2H-pyran-4-yl)methyl]-5-{[4-(trifluoromethoxy)phenyl]sulfonyl}pyridine-2-carboxamide]
94.6 | 53.7 | 36.4 | 5770 | Nc1cc(S(=O)(=O)c2ccc(F)cc2)cnc1C(=O)NCC1(O)CC1 [Compound 30, 3-amino-5-[(4-fluorophenyl)sulfonyl]-N-[(1-hydroxycyclopropyl)methyl]pyridine-2-carboxamide]
105.5 | 37.1 | 64.3 | > 3330 | COC1CN(C(=O)c2ncc(S(=O)(=O)c3ccc(OC(F)(F)F)cc3)cc2N)C1 [Compound 42, (3-amino-5-{[4-(trifluoromethoxy)phenyl]sulfonyl}pyridin-2-yl)(3-methoxyazetidin-1-yl)methanone]
90.8 | 57.5 | 23.5 | > 10000 | Nc1cc(S(=O)(=O)c2ccc(OC(F)(F)F)cc2)cnc1C(=O)NC[C@@H](O)CO [Compound 50, 3-amino-N-[(2R)-2,3-dihydroxypropyl]-5-{[4-(trifluoromethoxy)phenyl]sulfonyl}pyridine-2-carboxamide]
96.8 | 30.2 | 51.2 | 1130 | CC(C)(O)CCNC(=O)c1ncc(S(=O)(=O)c2ccc(OC(F)(F)F)cc2)cc1N [Compound 51, 3-amino-N-(3-hydroxy-3-methylbutyl)-5-{[4-(trifluoromethoxy)phenyl]sulfonyl}pyridine-2-carboxamide]
95.6 | 41.4 | 54.0 | 1820 | C[C@H](O)CCNC(=O)c1ncc(S(=O)(=O)c2ccc(OC(F)(F)F)cc2)cc1N [Compound 53, 3-amino-N-[(3S)-3-hydroxybutyl]-5-{[4-(trifluoromethoxy)phenyl]sulfonyl}pyridine-2-carboxamide]
92.2 | 20.6 | 42.3 | 1070 | Nc1cc(S(=O)(=O)c2ccc(OC(F)(F)F)cc2)cnc1C(=O)NCC(=O)NC1CC1 [Compound 58, 3-amino-N-[2-(cyclopropylamino)-2-oxoethyl]-5-{[4-(trifluoromethoxy)phenyl]sulfonyl}pyridine-2-carboxamide]
